Some test systems named below: 786-0; ACHN; HCC 2998; HL-60; HOP-62; K562; M14; MCF7; MDA-N; MOLT-4; NCI/ADR-RES; OVCAR-3; OVCAR-8; PC-3; SF-539; SK-MEL-2; SR; SW-620; UACC-62; Hs-578T.
Experiment in all cases: inhibition of tumour cell growth, NCI panel, 48 h

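Assay format: 96-well plates, 48-hour exposure. GI50: concentration for 50% inhibition of growth.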 Calls of active or inactive are those of the source. No stated cut-off is given here; in the data, active = GI50 up to about 1.1 µM and inactive = higher. Where a SMILES comes first, the peptide text is derived from it. The star is where a group is joined. Boc = CC(C)(C)OC(=O)* Where only a bound is given, the exact number is not on record here.

Turning to `NC1CC(=O)c2cc(Br)sc21` (configuration not stated), the GI50 in the experiment with 786-0, in the experiment on ACHN, in the experiment on HCC 2998, in the experiment with HL-60, with HOP-62 and with K562 was > 100 µM (inactive) throughout. The GI50 with M14, in the experiment with MCF7, with MDA-N, in the experiment on MOLT-4, in the experiment on NCI/ADR-RES and in the experiment on OVCAR-3 was > 100 µM (inactive) each time. Besides, the GI50 in the experiment with OVCAR-8, in the experiment on PC-3, in the experiment with SF-539, in the experiment with SK-MEL-2, in the experiment on SR and in the experiment on SW-620 was > 100 µM (inactive) each time. In the experiment on UACC-62, the GI50 is > 100 µM (inactive).

For `CC(C)=NN/C(=N\c1ccc(Cl)cc1)NS(=O)(=O)c1cc2ccccc2s1`, the GI50 in the experiment on 786-0 is > 100 µM (inactive); in the experiment with HL-60, 29.2 µM (inactive); in the experiment with HOP-62 it was > 100 µM (inactive); in the experiment with Hs-578T it was > 100 µM (inactive); with K562, 23 µM (inactive); with M14 it was 56.5 µM (inactive). Besides, the GI50 in the experiment with MCF7 was 53 µM (inactive); in the experiment on MOLT-4, 16.6 µM (inactive); with NCI/ADR-RES, 51.1 µM (inactive); in the experiment with OVCAR-3, 57 µM (inactive); with OVCAR-8 it was > 100 µM (inactive); in the experiment on PC-3, 45.7 µM (inactive). Further, the GI50 is 65.8 µM (inactive) in the experiment on SK-MEL-2, > 100 µM (inactive) in the experiment on SW-620 and > 100 µM (inactive) in the experiment on UACC-62.

As to `O=C(O)C1Cc2ccccc2OC1=O` (configuration not stated), the GI50 with 786-0, in the experiment with ACHN, in the experiment with HCC 2998, in the experiment with HOP-62, with Hs-578T and with K562 was > 100 µM (inactive) in each case. Also, the GI50 in the experiment with M14, with MCF7, in the experiment with MOLT-4, with NCI/ADR-RES, with OVCAR-3 and with OVCAR-8 was > 100 µM (inactive) in each case. For the same compound, the GI50 with PC-3, with SF-539, in the experiment on SK-MEL-2, with SR, in the experiment on SW-620 and with UACC-62 was > 100 µM (inactive) each time.

Regarding `Cc1ccc(-c2nc3n(c2/C=N\N=C(N)N)CCS3)cc1`, the GI50 in the experiment with 786-0 was 15.8 µM (inactive); with ACHN, 15 µM (inactive); in the experiment with HCC 2998, 11.6 µM (inactive); in the experiment with HL-60, 33.3 µM (inactive); with HOP-62, 15 µM (inactive); in the experiment with Hs-578T, 18.1 µM (inactive). Further, the GI50 in the experiment with K562 is 19.8 µM (inactive); in the experiment on MOLT-4 it was 45.8 µM (inactive); in the experiment on NCI/ADR-RES, 29.9 µM (inactive); in the experiment on OVCAR-8, 15.6 µM (inactive); with PC-3, 15 µM (inactive); in the experiment on SF-539, 15.2 µM (inactive). Also, the GI50 in the experiment on SK-MEL-2 is 12.9 µM (inactive); in the experiment on SR it was 59 µM (inactive); with SW-620 it was 15.7 µM (inactive); in the experiment on UACC-62 it was 18.1 µM (inactive).

Regarding `Nc1cc(N2CCOCC2)nc(=O)n1-c1ccc(Cl)cc1`, the GI50 in the experiment with 786-0 is > 100 µM (inactive); with ACHN it was > 100 µM (inactive); in the experiment on HCC 2998 it was > 100 µM (inactive); in the experiment with HL-60, 8.38 µM (inactive); with HOP-62, > 100 µM (inactive); in the experiment with K562, > 100 µM (inactive). For the same compound, the GI50 with M14, with MCF7, with MDA-N, with MOLT-4, in the experiment on NCI/ADR-RES and with OVCAR-3 was > 100 µM (inactive) throughout. The GI50 with OVCAR-8, with PC-3, in the experiment on SF-539, with SK-MEL-2, with SR and in the experiment with SW-620 was > 100 µM (inactive) throughout. In addition, the GI50 with UACC-62 is > 100 µM (inactive).

For `CC(=O)Nc1ccc2cc(C#N)c(=O)[nH]c2n1`, the GI50 in the experiment with 786-0, in the experiment on ACHN, in the experiment on HCC 2998, with HOP-62, in the experiment on K562 and in the experiment on M14 was > 100 µM (inactive) throughout. Besides, the GI50 in the experiment on MCF7, in the experiment with MDA-N, in the experiment on MOLT-4, in the experiment on NCI/ADR-RES, in the experiment with OVCAR-3 and in the experiment on OVCAR-8 was > 100 µM (inactive) each time. Moreover, the GI50 with PC-3, in the experiment on SF-539, in the experiment on SK-MEL-2 and in the experiment on SW-620 was > 100 µM (inactive) each time.

As for `O=C1/C(=N\NC(=S)Nc2ccc(Cl)cc2)c2cc([N+](=O)[O-])ccc2N1CN1CCOCC1`, the GI50 in the experiment on 786-0 is 4.41 µM (inactive); in the experiment on ACHN it was 4.73 µM (inactive); in the experiment on HL-60 it was 0.502 µM (active); in the experiment on HOP-62, < 0.01 µM (active); in the experiment on Hs-578T, 7.03 µM (inactive); in the experiment with M14 it was 10.1 µM (inactive). Moreover, the GI50 with MCF7 is 5.24 µM (inactive); in the experiment with MOLT-4, 0.655 µM (active); in the experiment with NCI/ADR-RES, 2.2 µM (inactive); with OVCAR-3 it was 3.99 µM (inactive); in the experiment on OVCAR-8, 5.6 µM (inactive); in the experiment with PC-3, 10.2 µM (inactive). For the same compound, the GI50 was 11.3 µM (inactive) in the experiment on SF-539; 13.2 µM (inactive) in the experiment with SK-MEL-2; 1.99 µM (inactive) in the experiment with SR; 4.37 µM (inactive) with SW-620; 5.31 µM (inactive) in the experiment with UACC-62.

As for `NC1(c2cc3ccccc3s2)CCCCCC1`, the GI50 with 786-0 was 15.5 µM (inactive); in the experiment on ACHN, 19.3 µM (inactive); with HCC 2998, 1.98 µM (inactive); in the experiment on HL-60, 14.8 µM (inactive); in the experiment on HOP-62, 14.6 µM (inactive); in the experiment on K562, 10.1 µM (inactive). The GI50 was 18.8 µM (inactive) in the experiment on M14; 16.1 µM (inactive) in the experiment with MCF7; 16.6 µM (inactive) in the experiment on MDA-N; 14.1 µM (inactive) in the experiment on MOLT-4; 15 µM (inactive) in the experiment on NCI/ADR-RES; 15.7 µM (inactive) in the experiment with OVCAR-3. Besides, the GI50 in the experiment on OVCAR-8 was 17.3 µM (inactive); in the experiment with PC-3, 11.7 µM (inactive); in the experiment with SF-539, 18 µM (inactive); with SK-MEL-2, 10.4 µM (inactive); with SR, 16.2 µM (inactive); in the experiment with SW-620 it was 16.3 µM (inactive). In addition, in the experiment with UACC-62, the GI50 was 18 µM (inactive).

Take `CNC(=O)CNC(=O)C(NC(=O)CNC(=O)C1CCCN1C(=O)C(C)NC(=O)C(NC(C)=O)C(C)C)C(C)C` (configuration not stated) (Ac-VAPGVG-NHMe; configuration not given here): the GI50 in the experiment on 786-0, in the experiment on ACHN, in the experiment on HCC 2998, in the experiment on HL-60, in the experiment with HOP-62 and with K562 was > 100 µM (inactive) throughout. The GI50 in the experiment on M14, in the experiment on MCF7, in the experiment on MDA-N, in the experiment with MOLT-4, in the experiment on NCI/ADR-RES and with OVCAR-3 was > 100 µM (inactive) throughout. Further, the GI50 in the experiment on OVCAR-8, with PC-3, in the experiment with SF-539, in the experiment on SK-MEL-2, with SR and with SW-620 was > 100 µM (inactive) in each case. The GI50 in the experiment with UACC-62 is > 100 µM (inactive).

For `CNC(=O)CNC(=O)C(NC(=O)CNC(=O)C1CCCN1C(=O)C(C)NC(=O)C(NC(=O)OC(C)(C)C)C(C)C)C(C)C` (configuration not stated) (Boc-VAPGVG-NHMe; configuration not given here), the GI50 in the experiment on 786-0, with ACHN, in the experiment with HCC 2998, in the experiment on HL-60, in the experiment with HOP-62 and with K562 was > 100 µM (inactive) throughout. For the same compound, the GI50 in the experiment on M14, in the experiment on MCF7, in the experiment on MDA-N, with MOLT-4, in the experiment on NCI/ADR-RES and in the experiment with OVCAR-3 was > 100 µM (inactive) throughout. The GI50 in the experiment with OVCAR-8, in the experiment on PC-3, with SF-539, in the experiment with SK-MEL-2, in the experiment with SR and with SW-620 was > 100 µM (inactive) each time. Further, the GI50 in the experiment on UACC-62 is > 100 µM (inactive).

In the case of `CCCCCCCCCCCCCP(=O)(OC)OC`, the GI50 in the experiment with 786-0 was 19.5 µM (inactive); in the experiment on ACHN, 18.5 µM (inactive); in the experiment on HCC 2998, 21.5 µM (inactive); in the experiment on HL-60 it was 15.6 µM (inactive); in the experiment on HOP-62, 14.9 µM (inactive); in the experiment on K562, 23.2 µM (inactive). Also, the GI50 with M14 was 19.9 µM (inactive); in the experiment with MOLT-4 it was 19.1 µM (inactive); in the experiment with OVCAR-3, 20.2 µM (inactive); with OVCAR-8, 17 µM (inactive); with SF-539, 17 µM (inactive); in the experiment with SK-MEL-2, 17.5 µM (inactive). Besides, the GI50 is 19 µM (inactive) in the experiment with SR, 17.7 µM (inactive) in the experiment on SW-620 and 17.9 µM (inactive) with UACC-62.

Source of the values: ChEMBL document CHEMBL1201862, “PubChem BioAssay data set” (2004).
